Measurements taken from US10294217B2, “Fluoroindole derivatives as muscarinic M1 receptor positive allosteric modulators” (Suven Life Sciences Limited, priority 2015, dated 2019).

How the values were obtained:
[1] = Protein binding assay (HT dialysis), rat matrices; type: in vitro ADME; conditions: Mean ± SEM
Description: (§1) Unbound fractions of new chemical entities in plasma, brain homogenate and liver microsomes were determined using high-throughput dialysis (HT dialysis). Briefly, dialysis membranes were soaked in deionized water for 20 minutes and then in deionized water with 30% ethanol for 15 minutes and finally in phosphate buffer until use. Membranes were rinsed in phosphate buffer before assembling. The membranes were layered between teflon bars of dialysis assembly. Stock solutions of test compounds were prepared at 10 mM in DMSO, diluted to 1 mM in acetonitrile and further diluted to 100 μM in mixture of water and acetonitrile (1:1 v/v). Human plasma (pool of 3) was prepared from human blood (3 donors) by centrifuging at 4000 rpm for 10 min at 4° C. Rat and dog blood were obtained on the day of the study and centrifuged to obtain plasma. Rat brains were isolated, cleaned and homogenized with 2 volumes of buffer (3 fold dilution). Liver microsomes were prepared at 0.5 mg/mL in phosphate buffer (100 mM, pH 7.4). The dialysate chambers were loaded with 150 μL of 100 mM phosphate buffer (pH 7.4) in triplicates. The matrix chambers were loaded with 150 μL of the plasma or brain homogenate or microsomal suspension spiked with test compounds at a final concentration of 1 μM. 50 μL of the sample was removed from both the chambers at 0 h. The plate was sealed and incubated at 37° C. for 6 h at 100 rpm. After 6 h, 50 μL of the sample was removed from both the chambers. Equal volumes of buffer or human plasma/microsomal suspension were added to the plasma/microsomal and buffer samples respectively to create identical sample matrices for analysis. The samples were precipitated with 150 μL of acetonitrile containing fluoxetine as an internal standard. All the samples were centrifuged at 10000 rpm for 10 minutes at 4° C.

[2] = Rodent pharmacokinetic study; type: in vivo, Male Wistar rats; conditions: male, Wistar; for AUC(0-t) / half-life / Cmax: rat plasma; for clearance / bioavailability: plasma, rat; for bioavailability: oral 3 mg/kg vs i.v. 1 mg/kg, read-out: % F (Bioavailability)
Description: Rodent Pharmacokinetic Study
Male Wistar rats (260±50 grams) were used as experimental animals. Animals were housed individually in polypropylene cage. Two days prior to study, male Wistar rats were anesthetized with isoflurane for surgical placement of jugular vein catheter. Rats were randomly divided for oral (3 mg/kg) and intravenous (i.v.) (1 mg/kg) dosing (n=3/group) and fasted overnight before oral dosing (p.o.). However, rats allocated to intravenous dosing food and water was provided ad libitum.
At pre-determined point, blood was collected through jugular vein and replenished with an equivalent volume of normal saline. Collected blood was transferred into a labeled eppendorf tube containing 10 μL of heparin as an anticoagulant. Typically blood samples were collected at following time points: 0.08, 0.25, 0.5, 1, 2, 4, 6, 8, and 24 hours post dose. Blood was centrifuged at 4000 rpm for 10 minutes. Plasma was separated and stored frozen at −80° C. until analysis. The concentrations of the test compounds were quantified in plasma by qualified LC-MS/MS method using suitable extraction technique. The test compounds were quantified in the calibration range around 1-1000 ng/mL in plasma. Study samples were analyzed using calibration samples in the batch and quality control samples spread across the batch.
Pharmacokinetic parameters Cmax, AUCt, T1/2, Clearance, and Bioavailability (% F) were calculated by non-compartmental model using standard non-compartmental model by using Phoenix WinNonlin 6.0.2 or 6.0.3 version Software package and the results are tabulated in table 3.

[3] = Protein binding assay (HT dialysis), dog matrices; type: in vitro ADME; conditions: Mean ± SEM
Description: as §1

[4] = Protein binding assay (HT dialysis), human matrices; type: in vitro ADME; conditions: Mean ± SEM
Description: as §1

[5] = Rodent brain penetration study; type: in vivo, Male Wistar rats; conditions: male, Wistar, rat, oral; 3 mg/kg, p.o.; brain-plasma ratio; read-out: Single dose Rat Brain Penetration (Cb/Cp)
Description: WO2015044072A1 patent application discloses indole derivatives as M1 PAM compounds. […] This makes these compounds less ideal for the treatment of CNS disorders.
Rodent Brain Penetration Study
Male Wistar rats (260±40 grams) were used as experimental animals. Three animals were housed in each cage. Animals were given water and food ad libitum throughout the experiment and maintained on a 12 hours light/dark cycle.
Brain penetration was determined in discrete manner in rats. One day prior to dosing day, male Wistar rats were acclimatized and randomly grouped according to their weight. At each time point (0.5, 1 and 2 hours) n=3 animals were used.
The test compounds were suitably preformulated and administered orally at (free base equivalent) 3 mg/kg. Blood samples were removed via cardiac puncture by using isoflurane anesthesia. The animals were sacrificed to collect brain tissue. Plasma was separated and brain samples were homogenized and stored frozen at ˜20° C. until analysis. The concentrations of the test compounds in plasma and brain were determined using LC-MS/MS method.
The test compounds were quantified in plasma and brain homogenate by qualified LC-MS/MS method using suitable extraction technique. The test compounds were quantified in the calibration range of 1-500 ng/mL in plasma and brain homogenate. Study samples were analyzed using calibration samples in the batch and quality control samples spread across the batch.

[6] = pH 7.4, Rat brain homogenate, 37° C., n = 3, read-out: Fu Brain
[7] = pH 7.4, Rat liver microsomes 0.5 mg/mL, n = 3, read-out: Fu Microsomes
[8] = pH 7.4, Rat plasma, 37° C., n = 3, read-out: Fu Plasma
[9] = pH 7.4, Dog liver microsomes 0.5 mg/mL, n = 3, read-out: Fu Microsomes
[10] = pH 7.4, Dog plasma, 37° C., n = 3, read-out: Fu Plasma
[11] = pH 7.4, Human liver microsomes 0.5 mg/mL, n = 3, read-out: Fu Microsomes
[12] = pH 7.4, Human plasma, 37° C., n = 3, read-out: Fu Plasma

SMILES | fraction unbound at 6 h, 1 μM [1, 6] | fraction unbound at 6 h, 1 μM [1, 7] | fraction unbound at 6 h, 1 μM [1, 8] | AUC(0-t) ([2]; iv, 1 mg/kg) | half-life ([2]; iv, 1 mg/kg) | clearance ([2]; iv, 1 mg/kg) | bioavailability [2] | AUC(0-t) ([2]; oral, 3 mg/kg) | Cmax ([2]; oral, 3 mg/kg) | half-life ([2]; oral, 3 mg/kg) | fraction unbound at 6 h, 1 μM [3, 9] | fraction unbound at 6 h, 1 μM [3, 10] | fraction unbound at 6 h, 1 μM [4, 11] | fraction unbound at 6 h, 1 μM [4, 12] | Kp [5]
Cl.O=C(N[C@H]1CCNC[C@H]1F)c1cn(Cc2ccnc(F)c2)c2c(F)ccc(F)c12 (single isomer, unassigned; isomer-i) [Example 22, Cis-N-(3-Fluoropiperidin-4-yl)-1-(2-fluoropyridin-4-ylmethyl)-4,7-difluoro-1H-indole-3-carboxamide hydrochloride (Isomer-I)] | 0.067 ± 0.002 | 0.902 ± 0.006 | 0.315 ± 0.03 | 908 ± 198 ng·h/mL | 7.6 ± 1.7 h | 17.1 ± 3.3 mL/min/kg | 60 ± 5% | 1650 ± 147 ng·h/mL | 207 ± 76 ng/mL | 4.8 ± 2.8 h | 0.866 ± 0.034 | 0.31 ± 0.01 | 0.788 ± 0.031 | 0.309 ± 0.008 | 0.46 ± 0.11
Cn1cc(Cn2cc(C(=O)N[C@H]3CCCC[C@@H]3O)c3c(F)cccc32)cn1 [Example 1, N-[(1S,2S)-2-Hydroxycyclohexyl]-1-(1-methyl-1H-pyrazol-4-ylmethyl)-4-fluoro-1H-indole-3-carboxamide] | 0.166 ± 0.01 | 0.836 ± 0.04 | 0.267 ± 0.03 | 2250 ± 190 ng·h/mL | 3 ± 0.3 h | 7.3 ± 0.4 mL/min/kg | 76 ± 7% | 5160 ± 464 ng·h/mL | 1190 ± 81 ng/mL | 2.9 ± 0.2 h | 0.982 ± 0.01 | 0.217 ± 0.21 |  | 0.197 ± 0.01 | 0.3 ± 0.05
O=C(N[C@H]1CCCC[C@@H]1O)c1cn(Cc2ccnc(Cl)c2)c2cccc(F)c12 [Example 2, N-[(1S,2S)-2-Hydroxycyclohexyl]-1-(2-chloropyridin-4-ylmethyl)-4-fluoro-1H-indole-3-carboxamide] | 0.015 ± 0.001 | 0.679 ± 0.081 | 0.068 ± 0.002 | 1150 ± 245 ng·h/mL | 1.9 ± 0.4 h | 16.1 ± 2.8 mL/min/kg | 63 ± 17% | 2160 ± 599 ng·h/mL | 632 ± 167 ng/mL | 1.9 ± 0.2 h | 0.576 ± 0.079 | 0.087 ± 0.008 | 0.459 ± 0.046 | 0.04 ± 0.002 | 0.95 ± 0.17
Cn1cc(Cn2cc(C(=O)N[C@H]3CCCC[C@@H]3O)c3c(F)ccc(F)c32)cn1 [Example 5, N-[(1S,2S)-2-Hydroxycyclohexyl]-1-(1-methyl-1H-pyrazol-4-ylmethyl)-4,7-difluoro-1H-indole-3-carboxamide] | 0.128 ± 0.01 | 0.779 ± 0.01 | 0.21 ± 0.01 | 2920 ± 1430 ng·h/mL | 4 ± 1.7 h | 7.1 ± 4.3 mL/min/kg | 90 ± 33% | 7870 ± 2860 ng·h/mL | 2680 ± 664 ng/mL | 3.3 ± 0.3 h | 0.746 ± 0.004 | 0.163 ± 0.02 | 0.899 ± 0.03 | 0.077 ± 0.01 | 0.5 ± 0.04
O=C(N[C@H]1CCCC[C@@H]1O)c1cn(Cc2ccnc(F)c2)c2cccc(F)c12 [Example 7, N-[(1S,2S)-2-Hydroxycyclohexyl]-1-(2-fluoropyridin-4-ylmethyl)-4-fluoro-1H-indole-3-carboxamide] | 0.06 ± 0.004 | 0.8 ± 0.04 | 0.2 ± 0.02 | 1120 ± 119 ng·h/mL | 2 ± 0.4 h | 14.2 ± 2 mL/min/kg | 67 ± 14% | 2260 ± 471 ng·h/mL | 783 ± 254 ng/mL | 1.4 ± 0.2 h | 0.6 ± 0.03 | 0.2 ± 0.01 | 0.7 ± 0.03 | 0.1 ± 0.004 | 0.61 ± 0.01
O=C(N[C@H]1CCCC[C@@H]1O)c1cn(Cc2ccnc(F)c2)c2c(F)ccc(F)c12 [Example 8, N-[(1S,2S)-2-Hydroxycyclohexyl]-1-(2-fluoropyridin-4-ylmethyl)-4,7-difluoro-1H-indole-3-carboxamide] | 0.0348 ± 0.0001 | 0.606 ± 0.008 | 0.089 ± 0.01 | 1830 ± 562 ng·h/mL | 1.8 ± 0.3 h | 9 ± 3 mL/min/kg | 45 ± 15% | 2500 ± 842 ng·h/mL | 578 ± 170 ng/mL | 2.3 ± 1.8 h | 0.679 ± 0.066 | 0.064 ± 0.01 | 0.626 ± 0.037 | 0.079 ± 0.006 | 1.1 ± 0.1
